Reference: US20150299250A1, “MACROCYCLIC COMPOUNDS AND USES THEREOF” (ADELAIDE RESEARCH & INNOVATION PTY LTD, priority 2012, published 2015)
Where a SMILES comes first, the peptide text is derived from it. The star is where a group is joined. Cbz = O=C(OCc1ccccc1)*

Tested on: p53 protein
Assay: Western blot analysis of p53 protein expression in MEF p53+/+
Type: cell-based, mouse
Conditions: MEFs p53+/+, 16 hours treatment
Protocol: Dose-response curves are provided in Supplementary Figure S3. Compound 1 was not assayed using this system.
Western blot analyses were performed as previously described. Briefly, cells were harvested and lysed in 50 mM Tris-HCl (pH 7.5), 250 mM NaCl, 1 mM EDTA, 50 mM NaF, 0.5% TritonX-10, 0.5 mM Na3VO4 and 1× […] inhibitor (Roche, Indianapolis, Ind., USA). Lysates were incubated on ice for 8 minutes and sonicated using a Vibra-Cell VCX130 (Sonics & Materials, Inc) at 25% amplitude for 10 seconds. Protein concentrations were assayed with the bicinchoninic acid assay (Thermo Scientific, Massachusetts, USA) and subsequently resolved using a 10% SDS-PAGE gel. Proteins were transferred onto a nitrocellulose membrane (Hybond-C Extra, Amersham Biosciences), blocked (10% milk/TBST; 30 mins), hybridized with the appropriate primary or HRP-conjugated secondary antibody and subsequently visualized using Enhanced Chemiluminescence (Amersham Biosciences).
Antibodies used included a mouse anti-β-actin (Sigma), anti-p53 (1C12-mouse specific) (Cell Signalling, Danvers, Mass., USA), sheep anti-mouse IgG-HRP (Amersham Biosciences, Piscataway, N.J., USA), or donkey anti-rabbit IgG-HRP (Amersham Biosciences).

For `CC(C)C[C@@H](C=O)NC(=O)[C@H](CC(C)C)NC(=O)[C@H](CC(C)C)NC(=O)OCc1ccccc1` [MG132, reference compound] (Cbz-Leu-Leu-Leu-aldehyde), the p53 protein levels was “increase p53 protein levels”.
